# Source: patent EP4624482A1, “PYRIMIDOPYRIMIDINONE COMPOUND AND PHARMACEUTICAL COMPOSITION COMPRISING SAME” (Axceso Biopharma Co., Ltd., priority 2022, dated 2024)
# Assays:
# SIRT1 = SIRT1 expression in HUVECs by western blot; type: cell-based, human; conditions: 24 hours
# Method: To determine the increase in SIRT1 expression by the compound of formula (1a-1) prepared in Example 1 above in human umbilical vein endothelial cells (HUVECs), HUVECs were seeded at 5 × 10^5/4 ml in a 60 mm cell culture dish using ECBM2 medium (Promocell) and stabilized for 12 hours in an incubator maintained at 37°C and 5% CO2, respectively.
# The cells were then treated with 10 nM, 100 nM and 1000 nM of the compound of formula (1a-1) prepared in Example 1 above, respectively, and incubated for another 24 hours, and then SIRT1 expression was determined by western blot.
# [1] = test system: tyrosine hydroxylase (TH); test: TH expression in rotenone-treated differentiated SH-SY5Y dopaminergic neurons, western blot; type: cell-based, human
# Method: To analyze the effect on the expression of tyrosine hydroxylase (TH) and α-synuclein as neuron-specific proteins, western blot was performed.
# SH-SY5Y cell line was treated with retinoic acid and 12-O-tetradecanoylphorbol-13-acetate (TPA) to induce differentiation into TH-secreting neurons for 6 days.
# Differentiated dopaminergic neurons were lysed in PRO-PREP (Intronbio), a cell lysis solution containing protease inhibitor cocktail (Gendepot), and electrophoresed in 10% SDS polyacrylamide gels at 20 µg/well. Transfer was performed using PVDF (Merck millipore) as a membrane, and tyrosine hydroxylase antibody, α-synuclein antibody (Cell signaling), and β-actin antibody (Santa Cruz) were used for reaction for more than 2 hours. Protein expression was detected by staining with ECL substrate (Biorad) for development and graphed using the image J program.
# C57BL/6 mice [2] = test: Survival in sepsis induced by cecal ligation and puncture (CLP); type: in vivo; conditions: 100 ng/mouse (5 µg/kg) intravenously at 6 and 16 hours after CLP
# Method: C57BL/6 mice aged 7-8 weeks were purchased from Jabio (Suwon, Gyeonggi-do) and sepsis was induced by cecal ligation and puncture (CLP).
# Specifically, after anesthesia using 150 mg/kg of ketamine and 17.5 mg/kg of rompun, an abdominal incision of 1-2 cm was made to expose the cecum to induce sepsis. The cecum was ligated with 6-0 silk sutures at the distal end of the ileocecal valve, and a puncture was made with an 18-gauge needle. The perforated cecum was gently squeezed to push out 1-2 cm of feces, and the cecum was then retracted back into the abdominal cavity. The abdomen was then closed and pre-warmed normal saline (2.5 mL/100 g body weight) was injected into the mouse abdominal cavity immediately after the procedure. 6 and 16 hours after CLP treatment, the compound of formula (1a-1) was dissolved in phosphate buffered saline (PBS) and injected intravenously at 100 ng/mouse (5 µg/kg), and survival was examined for 10 days. […] In addition, as a drug-negative control, survival was examined in mice that received only PBS after CLP treatment.
# For comparison, we also examined the survival of a control group treated with fingolimod (FTY720), a known S1P modulator, instead of the compound of formula (1a-1) under the same conditions.
# C57BL/6 mice [3] = test: Acute respiratory distress syndrome induced by CLP: lung histology, lung injury score, wet-to-dry weight ratio; type: in vivo; conditions: treated at 6 and 16 hours after CLP, lungs harvested at 18 hours
# Method: CLP induces pulmonary edema due to increased inflammation and disruption of the vascular barrier, resulting in acute respiratory distress syndrome (ARDS). To determine the effect on ARDS, the compound of formula (1a-1) was treated at 6 and 16 hours after CLP treatment in the same manner as in Experimental Example 7 above, the lungs of mice were harvested at 18 hours for histological analysis, and the wet-to-dry weight ratio of the lungs was obtained. For comparison, mice without CLP treatment served as a control group.
# For histologic analysis, the harvested lungs were fixed in 10% paraformaldehyde, infiltrated with paraffin, sectioned into 5 µm-thick tissues, and then de-paraffinized with xylene. Sectioned tissues were mounted on slides, stained with H&E, and observed under an optical microscope. In addition, the lung tissue damage was evaluated by histological score to obtain the lung injury score (LIS) for each group.
# To calculate the wet-to-dry weight ratio, lung organs were harvested 18 hours after CLP treatment, and the wet weight was measured immediately after harvesting, and the dry weight was measured after drying in an oven at 60°C for 48 hours to calculate the wet-to-dry weight ratio. The wet-to-dry weight ratio is used as an indicator of organ edema formation.
# IL-6 = test: Serum IL-6 after CLP treatment, ELISA; type: in vivo, mouse; conditions: treated at 6 and 16 hours after CLP, serum at 18 hours
# Method: After CLP treatment, the inflammatory cytokines TNF-α and IL-6 were analyzed by ELISA.
# Specifically, after treating the compound of formula (1a-1) at 6 and 16 hours after CLP treatment, mouse blood was collected at 18 hours and allowed to stand at room temperature for 1 hour, then centrifuged at 3000 rpm for 10 minutes to obtain serum to analyze the amount of TNF-α and IL-6.
# [4] = test system: MYSEC (murine yolk sac endothelial cell) cell lines; test: In vitro permeability of LPS-treated MYSEC cells (transwell, streptavidin-HRP); type: cell-based
# Method: (§1) Permeability was measured by an in vitro method using cell culture and in vivo method using Evans blue dye. To increase permeability, LPS was used in the in vitro method and CLP treatment was used in the in vivo method.
# To measure permeability by an in vitro method, MYSEC (murine yolk sac endothelial cell) cell lines were used. MYSEC cell lines were placed in the top chamber of a trans well at 2.5×10^5 cells/well and treated with 300 ng of lipopolysaccharide (LPS) derived from Gram-negative bacteria in the presence of the compound of formula (1a-1) for 24 hours. The medium in the top chamber was replaced with 300 µl of serum-free medium containing 5 µl of streptoavidin-HRP. After 5 minutes, 20 µl of the medium in the lower chamber was taken and the activity of HRP was measured as absorbance at 450 nm.
# To determine the mechanism by which the compound of formula (1a-1) improves permeability, the same experiment was performed by knocking down the SIRT1 protein in the MYSEC cell line.
# C57BL/6 mice [5] = test: In vivo permeability of mouse organs after CLP, Evans blue dye; conditions: treated at 6 and 16 hours after CLP, Evans blue dye at 18 hours
# Method: as §1
# To measure permeability by an in vivo method, the compound of formula (1a-1) was treated at 6 and 16 hours after CLP treatment in the same manner as in Experimental Example 7 above, and 200 µl of a 0.5% Evans blue dye (EBD) solution was administered intravenously at 18 hours, circulated for 1 hour, and organs were harvested to visually confirm the presence of dye. The organs were then homogenized in a homogenizer to extract the dye at 55 °C for 48 hours, and permeability was determined by measuring absorbance at 620 nm.
smiles,measurement,setting,value
"CCCCCCCCCCCCCC[C@H]1OP(=O)(O)O[C@H]1[C@@H](N)CO.Cl [formula (1a-1), (4S,5R)-4-((S)-1-amino-2-hydroxyethyl)-2-hydroxy-5-tetradecyl-1,3,2-dioxaphosphoran-2-oxide hydrochloride]",expression of SIRT1,SIRT1; 10 nM,increases
same,EC50,SIRT1; read-out: concentration (EC50) that increased the expression of SIRT1 by 50%,~10 nM
same,effectiveness on TH and α-synuclein expression compared with control drug,[1],more effective than resveratrol
same,expression of TH decreased by rotenone,[1]; differentiated dopaminergic neurons treated with rotenone,restored
same,deaths after 10 days,C57BL/6 mice [2],no deaths
same,survival,C57BL/6 mice [2]; for 10 days,more than 80%
same,lung injury score,C57BL/6 mice [3],almost restores the lung injury score to normal
same,"lung tissue (optical microscope, H&E)",C57BL/6 mice [3],almost restored to normal
same,wet-to-dry weight ratio of the lung,C57BL/6 mice [3],restores the wet-to-dry weight ratio of the lung to normal
same,amount of inflammatory cytokine IL-6,IL-6,significantly decreased
same,effect on LPS-induced permeability after knockdown of the SIRT1 protein,"[4]; MYSEC cell line with SIRT1 knockdown, LPS",does not show the effect
same,LPS-induced increased permeability,"[4]; MYSEC cell line, 300 ng LPS, 24 hours",restores the LPS-induced increased permeability to normal
same,amount of EBD in each organ,C57BL/6 mice [5],returns to normal
